Consider ten compounds from US20250066347A1, “SUBSTITUTED THIAZOLIDINEDIONE DERIVATIVE COMPOUND, AND PHARMACEUTICAL COMPOSITION FOR PREVENTING OR TREATING CANCER, COMPRISING SAME” (MEDIFIC, INC., priority 2021, published 2025).

In one assay the test system is SREBP. The experiment in a line: Cell-based assay system using a 6xSRE reporter vector (copGFP intensity) in HOG-GSC-6xSRE-copGFP_HIGH cells. Also noted: dose or concentration left out as unconfirmed. The following applies: copGFP intensity normalized to DMSO control = 1, 72 hours. The text has this: First, as shown in (a) of FIG. 1, SRE(5′-ATCACCCCAC-3′) 6 copies which are DNA seCuences to which a transcription factor, SREBP active form bonds were inserted into a minimal CMV promoter 5′ front end of a pGreenfire-Lenti-reporter vector to produce a 6xSRE reporter vector. The 6xSRE reporter vector is a vector system in which a minimal CMV promoter is activated only when SREBP in an activated form bonds to 6xSRE and copGFP is expressed, and after the vector was introduced to HOG-GSC which is a brain tumor stem cell, separation into a GFP high cell and a GFP low cell through FACS sorting was performed. Each of SREBP1a and SREBP1c in an active form was overexpressed in separated GFP-low cells (b of FIG. 1), and it was measured therefrom whether the expression amount of GFP was increased. As a result, it was confirmed that the overexpression of SREBP1a and SREBP1c active forms increased GFP expression by 43.30% and 93.49%, in separated GFP-low cells (c of FIG. 1). The separated GFP-high cells were treated with each of fatostatin and FGH10019 known to inhibit activity of DMSO and SREBP which was a control group to measure a change in the expression amount of GFP, and, as a result, it was confirmed that when treated with known materials, fatostatin and FGH10019, the expression of GFP was inhibited by up to 50% (d of FIG. 1).
HOG-GSC-6xSRE-copGFP_HIGH cells were dispensed into a 96-well plate (Corning) at 5000/well, each well was treated […], and then all wells were photographed every 3 hours for 72 hours in an incubator (ThermoFisher) at […], 5% CO2, using real-time cell imaging equipment (Incucyte) to photograph changes in copGFP intensity.

In the next assay the test system is HOG-GSC cells. The experiment in a line: Comparison of cell viability in brain tumor stem cell (MTS assay). The following applies: 72 hours, DMSO control = 1, value below 0.5 = viability decreased by 50% or more. Format: cell-based. As for the experimental part:
HOG-GSC cells which are brain tumor stem cells were treated with 11 compounds at 10 μM and DMSO as a control group, and the number of surviving cells after 72 hours was evaluated by MTS assay.
HOG-GSC which is a brain tumor stem cell was seeded on a 96-well plate at 5000 cells per well, and was cultured in an incubator (ThermoFisher) at 37° C. and 5% CO2 for 24 hours for stabilization of cells. Thereafter, it was treated with 11 compounds of the present invention at […] each, and treated with the same volume of DMSO as a control group as the volume of each compound. After treatment with the compound of the present invention and the control group, cells were cultured in an incubator at 37° C. and 5% CO2 for 72 hours. Thereafter, since there were many living cells in each well, cell viability was quantified using a cell viability assay kit (LPS solution) of which the color becomes darker with an increase in the number of cells. After treatment with the cell viability assay solution, a reaction was performed in an incubator at 37° C. and 5% CO2 for 3 hours to perform coloration, absorbance at 450 nm was measured using a microplate reader (BioTek), and an absorbance intensity of the control group was set to 1 and the absorbance of cells treated with each compound was normalized and is shown in FIG. 2.

Consider `Cc1cc(C)cc(-c2cc(/C=C3\SC(=O)NC3=O)ccn2)c1` [Compound 19, (Z)-5-((2-(3,5-Dimethylphenyl)pyridin-4-yl)methylene)thiazolidine-2,4-dione], for which, in the assay with SREBP, the activity is 1.8%. Besides, the “cell viability inhibition effect (normalized MTS value)” value with HOG-GSC cells is “significant cell viability inhibition effect”.

Regarding `O=C1NC(=O)/C(=C/c2ccnc(-c3ccc(C(F)(F)F)cc3)c2)S1` [Compound 12, (Z)-5-((2-(4-(trifluoromethyl)phenyl)pyridin-4-yl)methylene) thiazolidine-2,4-dione], the activity with SREBP was determined as 5.9%. In addition, the “cell viability inhibition effect (normalized MTS value)” value with HOG-GSC cells is reported as “significant cell viability inhibition effect”.

In turn, `Cc1ccc(-c2cc(/C=C3\SC(=O)NC3=O)ccn2)cc1` [Compound 10, (Z)-5-((2-(p-tolyl)pyridin-4-yl)methylene)thiazolidine-2,4-dione] displayed an activity with SREBP of 8.8%. In the assay on HOG-GSC cells, the “cell viability inhibition effect (normalized MTS value)” value was “significant cell viability inhibition effect”.

The compound `CC(C)(C)c1ccc(-c2ccnc(/C=C3\SC(=O)NC3=O)c2)cc1` [Compound 31, (Z)-5-((4-(4-(tert-butyl)phenyl)pyridin-2-yl)methylene)thiazolidine-2,4-dione] registered an activity in the assay with SREBP of 4.5%. Further, the “cell viability inhibition effect (normalized MTS value)” value in the assay on HOG-GSC cells was “significant cell viability inhibition effect”.

In the case of `O=C1NC(=O)/C(=C/c2ccnc(-c3ccc(OC(F)(F)F)cc3)c2)S1` [Compound 14, (Z)-5-((2-(4-(trifluoromethoxy)phenyl)pyridin-4-yl)methylene) thiazolidine-2,4-dione], in the assay on SREBP, the activity was 1.7%. Also, the “cell viability inhibition effect (normalized MTS value)” value in the assay with HOG-GSC cells was “significant cell viability inhibition effect”.

Compound `CC(C)(C)c1ccc(-n2cccc2/C=C2\SC(=O)NC2=O)cc1` [Compound 3, (Z)-5-((1-(4-(tert-butyl)phenyl)-1H-pyrrol-2-yl)methylene) thiazolidine-2,4-dione] yielded an activity in the assay on SREBP of 1%. In the assay with HOG-GSC cells, the “cell viability inhibition effect (normalized MTS value)” value is given as “significant cell viability inhibition effect”.

In the assay with SREBP, `CC(C)(C)c1cccc(-c2cc(/C=C3\SC(=O)NC3=O)ccn2)c1` [Compound 18, (Z)-5-((2-(3-(tert-butyl)phenyl)pyridin-4-yl)methylene)thiazolidine-2,4-dione] returned an activity of 1.3%. In the assay on HOG-GSC cells, the “cell viability inhibition effect (normalized MTS value)” value is “significant cell viability inhibition effect”.

`O=C1NC(=O)/C(=C/c2ccnc(-c3ccc(OCc4ccccc4)cc3)c2)S1` [Compound 15, (Z)-5-((2-(4-(benzyloxy)phenyl)pyridin-4-yl)methylene)thiazolidine-2,4-dione] gave an activity with SREBP of 8.6%. In the assay with HOG-GSC cells, the “cell viability inhibition effect (normalized MTS value)” value is reported as “significant cell viability inhibition effect”.

In the assay on SREBP, `O=C1NC(=O)/C(=C/c2ccc(-c3ccc(OC(F)(F)F)cc3)nc2)S1` [Compound 25, (Z)-5-((6-(4-(trifluoromethoxy)phenyl)pyridin-3-yl)methylene) thiazolidine-2,4-dione] registered an activity of 6.3%. Besides, in the assay on HOG-GSC cells, the “cell viability inhibition effect (normalized MTS value)” value is reported as “significant cell viability inhibition effect”.

On to `CC(C)(C)c1ccc(-c2cncc(/C=C3\SC(=O)NC3=O)c2)cc1` [Compound 28, (Z)-5-((5-(4-(tert-butyl)phenyl)pyridin-3-yl)methylene)thiazolidine-2,4-dione], for which the activity with SREBP turned out to be 4.8%. Further, in the assay with HOG-GSC cells, the “cell viability inhibition effect (normalized MTS value)” value is recorded as “significant cell viability inhibition effect”.
